Positions of bridges follow the written chain, without caps; N, C: chain ends. Non-standard residues stand in square brackets, D forms with d. Residues, ends and D or L forms follow the SMILES beside them. Groups on a side chain read outwards from the residue. *: point of attachment. Pent4ynoyl = C#CCCC(=O)*; Pra = C#CC[C@H](N)C(=O)O; Abu = CC[C@H](N)C(=O)O

Common to all, as to test: cell-based
In one assay the target is hNav1.7 (Homo sapiens, UniProt Q15858). The assay is classed as cell-based. Particulars: IonWorks Quattro, use-dependent block, hNav1.7; read-out: IWQ Use Nav1.7. For orientation: The patch-clamp technique gives a direct electrical read-out from membranes.
The target of another assay is hNav1.3 (Homo sapiens, UniProt Q9NY46). The following applies: IonWorks Quattro, use-dependent block, hNav1.3; read-out: IWQ Use Nav1.3.
The next assay has as its target hNav1.5 (Homo sapiens, UniProt Q14524). The following applies: IonWorks Quattro, use-dependent block, hNav1.5; read-out: IWQ Use Nav1.5.

Chain of hNav1.5 (Q14524 whole entry, looked up): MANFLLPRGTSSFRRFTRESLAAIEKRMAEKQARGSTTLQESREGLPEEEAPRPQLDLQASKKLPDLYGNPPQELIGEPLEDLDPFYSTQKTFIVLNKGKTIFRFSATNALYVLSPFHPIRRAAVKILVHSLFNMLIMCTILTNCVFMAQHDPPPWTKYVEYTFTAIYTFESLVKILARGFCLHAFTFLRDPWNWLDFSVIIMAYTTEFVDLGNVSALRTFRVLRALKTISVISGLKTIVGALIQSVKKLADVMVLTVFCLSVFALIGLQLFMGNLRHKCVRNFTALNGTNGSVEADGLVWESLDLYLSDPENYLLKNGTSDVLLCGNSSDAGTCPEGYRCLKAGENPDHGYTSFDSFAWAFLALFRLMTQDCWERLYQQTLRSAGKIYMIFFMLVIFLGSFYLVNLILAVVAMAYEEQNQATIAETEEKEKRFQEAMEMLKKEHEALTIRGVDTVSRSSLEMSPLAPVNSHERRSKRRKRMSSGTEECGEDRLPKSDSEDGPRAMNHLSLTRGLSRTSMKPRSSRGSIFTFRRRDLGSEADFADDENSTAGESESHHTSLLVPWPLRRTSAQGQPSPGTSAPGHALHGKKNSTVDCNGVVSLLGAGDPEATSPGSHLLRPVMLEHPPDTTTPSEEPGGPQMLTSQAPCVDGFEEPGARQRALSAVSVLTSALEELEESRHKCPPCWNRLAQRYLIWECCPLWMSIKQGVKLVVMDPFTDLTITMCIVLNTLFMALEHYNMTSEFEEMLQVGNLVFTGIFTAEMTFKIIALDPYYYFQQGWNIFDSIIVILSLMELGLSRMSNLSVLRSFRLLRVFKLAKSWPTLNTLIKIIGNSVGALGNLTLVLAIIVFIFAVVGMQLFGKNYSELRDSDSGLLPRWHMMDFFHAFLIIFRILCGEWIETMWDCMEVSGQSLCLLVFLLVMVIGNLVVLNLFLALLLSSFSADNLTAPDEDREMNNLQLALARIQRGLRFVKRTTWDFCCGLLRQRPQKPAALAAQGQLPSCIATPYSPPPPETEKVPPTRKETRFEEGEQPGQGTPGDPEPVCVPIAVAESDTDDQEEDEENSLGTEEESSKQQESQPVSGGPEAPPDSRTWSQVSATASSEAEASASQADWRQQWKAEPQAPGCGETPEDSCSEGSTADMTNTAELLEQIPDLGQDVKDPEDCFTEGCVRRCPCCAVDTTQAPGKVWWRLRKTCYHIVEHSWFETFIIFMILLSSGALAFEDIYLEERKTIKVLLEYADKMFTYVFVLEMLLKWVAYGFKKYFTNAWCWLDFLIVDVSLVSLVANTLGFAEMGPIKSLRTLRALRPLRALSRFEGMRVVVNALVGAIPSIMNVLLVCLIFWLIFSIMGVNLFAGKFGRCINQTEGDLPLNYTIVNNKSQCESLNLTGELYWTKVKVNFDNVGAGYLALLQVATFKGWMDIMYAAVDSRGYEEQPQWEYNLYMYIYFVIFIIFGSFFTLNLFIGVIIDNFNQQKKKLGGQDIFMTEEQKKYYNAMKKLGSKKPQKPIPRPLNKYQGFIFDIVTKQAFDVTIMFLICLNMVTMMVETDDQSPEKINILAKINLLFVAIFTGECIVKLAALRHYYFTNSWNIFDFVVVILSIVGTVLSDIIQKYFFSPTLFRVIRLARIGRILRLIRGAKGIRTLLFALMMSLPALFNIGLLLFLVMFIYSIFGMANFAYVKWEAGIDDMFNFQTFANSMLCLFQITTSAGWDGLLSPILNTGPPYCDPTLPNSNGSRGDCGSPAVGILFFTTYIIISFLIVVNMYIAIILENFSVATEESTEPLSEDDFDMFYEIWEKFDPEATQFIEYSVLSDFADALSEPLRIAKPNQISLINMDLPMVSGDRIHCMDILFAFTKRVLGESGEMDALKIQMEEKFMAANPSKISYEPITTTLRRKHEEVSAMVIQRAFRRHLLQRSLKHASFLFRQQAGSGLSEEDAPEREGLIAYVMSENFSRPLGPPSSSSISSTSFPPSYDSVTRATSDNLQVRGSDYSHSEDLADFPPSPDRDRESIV
Chain of hNav1.7 (Q15858 whole entry, looked up): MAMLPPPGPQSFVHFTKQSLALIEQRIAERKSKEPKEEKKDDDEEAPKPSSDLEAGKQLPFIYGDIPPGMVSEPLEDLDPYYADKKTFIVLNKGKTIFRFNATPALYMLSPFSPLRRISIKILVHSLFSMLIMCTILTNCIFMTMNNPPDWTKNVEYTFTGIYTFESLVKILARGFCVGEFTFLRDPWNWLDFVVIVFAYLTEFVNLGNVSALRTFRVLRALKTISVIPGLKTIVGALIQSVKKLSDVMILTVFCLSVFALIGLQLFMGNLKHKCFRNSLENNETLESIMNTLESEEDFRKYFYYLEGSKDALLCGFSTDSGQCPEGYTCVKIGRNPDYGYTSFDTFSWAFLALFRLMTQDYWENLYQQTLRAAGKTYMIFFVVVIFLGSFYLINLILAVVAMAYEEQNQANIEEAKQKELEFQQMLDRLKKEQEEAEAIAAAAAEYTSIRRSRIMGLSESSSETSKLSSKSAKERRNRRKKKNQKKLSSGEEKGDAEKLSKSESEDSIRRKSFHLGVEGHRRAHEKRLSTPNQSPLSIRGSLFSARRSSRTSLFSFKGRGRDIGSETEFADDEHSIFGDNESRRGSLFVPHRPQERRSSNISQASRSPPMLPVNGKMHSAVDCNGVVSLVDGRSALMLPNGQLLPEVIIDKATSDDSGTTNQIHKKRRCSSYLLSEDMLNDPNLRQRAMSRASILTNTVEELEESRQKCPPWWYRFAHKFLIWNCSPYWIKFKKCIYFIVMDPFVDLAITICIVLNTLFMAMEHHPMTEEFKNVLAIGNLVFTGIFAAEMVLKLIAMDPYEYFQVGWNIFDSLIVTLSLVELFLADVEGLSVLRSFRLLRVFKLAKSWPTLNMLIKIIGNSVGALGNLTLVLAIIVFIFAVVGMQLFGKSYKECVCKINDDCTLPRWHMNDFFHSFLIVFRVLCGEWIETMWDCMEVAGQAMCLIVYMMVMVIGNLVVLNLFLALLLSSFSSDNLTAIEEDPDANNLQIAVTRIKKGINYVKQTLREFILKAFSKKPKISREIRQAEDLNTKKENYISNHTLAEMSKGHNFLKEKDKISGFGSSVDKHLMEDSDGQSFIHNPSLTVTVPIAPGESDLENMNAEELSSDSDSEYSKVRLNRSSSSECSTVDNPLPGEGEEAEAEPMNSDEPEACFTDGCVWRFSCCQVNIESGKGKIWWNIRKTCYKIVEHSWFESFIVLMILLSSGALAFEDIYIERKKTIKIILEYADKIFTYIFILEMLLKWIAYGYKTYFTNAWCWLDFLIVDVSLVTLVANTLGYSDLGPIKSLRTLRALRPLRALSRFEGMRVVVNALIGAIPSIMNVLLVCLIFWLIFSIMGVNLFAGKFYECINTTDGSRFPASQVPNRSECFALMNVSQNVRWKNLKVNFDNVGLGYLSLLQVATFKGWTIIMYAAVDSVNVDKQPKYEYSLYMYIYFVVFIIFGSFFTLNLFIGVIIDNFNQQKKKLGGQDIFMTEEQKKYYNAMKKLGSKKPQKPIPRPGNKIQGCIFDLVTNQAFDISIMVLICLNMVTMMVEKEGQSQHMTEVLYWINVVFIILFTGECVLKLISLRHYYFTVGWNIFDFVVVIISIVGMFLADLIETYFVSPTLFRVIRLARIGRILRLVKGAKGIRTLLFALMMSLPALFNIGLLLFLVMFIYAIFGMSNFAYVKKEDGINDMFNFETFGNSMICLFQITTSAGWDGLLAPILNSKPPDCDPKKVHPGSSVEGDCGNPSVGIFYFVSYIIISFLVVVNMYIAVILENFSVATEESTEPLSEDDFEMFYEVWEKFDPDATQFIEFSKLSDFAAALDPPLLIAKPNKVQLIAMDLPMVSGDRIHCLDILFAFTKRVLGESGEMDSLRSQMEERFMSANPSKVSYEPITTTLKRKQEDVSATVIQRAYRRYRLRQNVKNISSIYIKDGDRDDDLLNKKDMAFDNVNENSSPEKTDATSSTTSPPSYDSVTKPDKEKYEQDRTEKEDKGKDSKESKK

Take `C#CC[C@@H]1NC(=O)[C@H](CC(=O)O)NC(=O)[C@@H]2CCCN2C(=O)[C@H]([C@@H](C)CC)NC(=O)[C@@H]2CSSC[C@@H]3NC(=O)[C@H](C(C)C)NC(=O)[C@H](CC(C)C)NC(=O)[C@H](CC(N)=O)NC(=O)[C@@H]4CCCN4C(=O)[C@H](CCCNC(=N)N)NC(=O)[C@H](CSSC[C@H](NC(=O)[C@@H](N)CC(=O)O)C(=O)N[C@@H](CC(C)C)C(=O)NCC(=O)N[C@@H](C)C(=O)N[C@@H](CC(C)C)C(=O)N[C@@H](CCCNC(=N)N)C(=O)N[C@@H](CCCCN)C(=O)N2)NC(=O)[C@H](CSSC[C@@H](C(=O)N[C@@H](CCCCN)C(=O)N[C@@H](Cc2ccc(O)cc2)C(=O)N[C@H](C(=O)N[C@@H](Cc2ccccc2)C(N)=O)C(C)C)NC(=O)[C@H](Cc2c[nH]c4ccccc24)NC(=O)[C@H](CCCNC(=N)N)NC(=O)[C@H](Cc2c[nH]cn2)NC(=O)[C@H](CC(C)C)NC(=O)[C@H](CCCNC(=N)N)NC(=O)[C@H](CO)NC3=O)NC(=O)[C@H](CCCCN)NC(=O)[C@H](CC(=O)O)NC1=O` [compound 796] (H-DCLGALRKCIPD[Pra]DKCCRPNLVCSRLHRWCKYVF-NH2; disulfide 2-17, 9-23, 16-30): the figures for the IC50 on hNav1.7, on hNav1.3 and at hNav1.5 were 0.22 µM, 0.48 µM and 36.4 µM, respectively.

As to `C#CC[C@@H]1NC(=O)[C@H](CC(=O)O)NC(=O)[C@@H]2CCCN2C(=O)[C@H]([C@@H](C)CC)NC(=O)[C@@H]2CSSC[C@@H]3NC(=O)[C@H](C(C)C)NC(=O)[C@H](CC(C)C)NC(=O)[C@H](CC(N)=O)NC(=O)[C@@H]4CCCN4C(=O)[C@H](CCCNC(=N)N)NC(=O)[C@H](CSSC[C@H](NC(=O)[C@@H](N)CC(=O)O)C(=O)N[C@@H](CC(C)C)C(=O)NCC(=O)N[C@@H](CC)C(=O)N[C@@H](CC(C)C)C(=O)N[C@@H](CCCNC(=N)N)C(=O)N[C@@H](CCCCN)C(=O)N2)NC(=O)[C@H](CSSC[C@@H](C(=O)N[C@@H](CCCCN)C(=O)N[C@@H](Cc2ccc(O)cc2)C(=O)N[C@H](C(=O)N[C@@H](Cc2ccccc2)C(N)=O)C(C)C)NC(=O)[C@H](Cc2c[nH]c4ccccc24)NC(=O)[C@H](CCCCN)NC(=O)[C@H](Cc2c[nH]cn2)NC(=O)[C@H]([C@@H](C)O)NC(=O)[C@H](CCCNC(=N)N)NC(=O)[C@H](CO)NC3=O)NC(=O)[C@H](CCCCN)NC(=O)[C@H](CC(=O)O)NC1=O` [compound 797] (H-DCLG[Abu]LRKCIPD[Pra]DKCCRPNLVCSRTHKWCKYVF-NH2; disulfide 2-17, 9-23, 16-30), the IC50 on hNav1.7 worked out at 0.52 µM; on hNav1.3, 0.93 µM; at hNav1.5 it was 34 µM.

For `C#CC[C@@H]1NC(=O)[C@H](CC(=O)O)NC(=O)[C@@H]2CCCN2C(=O)[C@H](CCC(=O)O)NC(=O)[C@@H]2CSSC[C@@H]3NC(=O)[C@H](C(C)C)NC(=O)[C@H](CC(C)C)NC(=O)[C@H](CC(N)=O)NC(=O)[C@@H]4CCCN4C(=O)[C@H](CCCNC(=N)N)NC(=O)[C@H](CSSC[C@H](NC(=O)[C@@H](N)CC(=O)O)C(=O)N[C@@H](CC(C)C)C(=O)NCC(=O)N[C@@H](C)C(=O)N[C@@H](Cc4ccccc4)C(=O)N[C@@H](CCCNC(=N)N)C(=O)N[C@@H](CCCCN)C(=O)N2)NC(=O)[C@H](CSSC[C@@H](C(=O)N[C@@H](CCCCN)C(=O)N[C@@H](Cc2ccc(O)cc2)C(=O)N[C@H](C(=O)N[C@@H](Cc2ccccc2)C(N)=O)C(C)C)NC(=O)[C@H](Cc2c[nH]c4ccccc24)NC(=O)[C@H](CCCNC(=N)N)NC(=O)[C@H](Cc2c[nH]cn2)NC(=O)[C@H](CC(C)C)NC(=O)[C@H](CCCNC(=N)N)NC(=O)[C@H](CO)NC3=O)NC(=O)[C@H](CCCCN)NC(=O)[C@H](CC(=O)O)NC1=O` [compound 798] (H-DCLGAFRKCEPD[Pra]DKCCRPNLVCSRLHRWCKYVF-NH2; disulfide 2-17, 9-23, 16-30), the IC50 amounted to 0.54 µM at hNav1.7, 0.56 µM at hNav1.3 and 32.2 µM at hNav1.5.

With `C#CC[C@H](NC(C)=O)C(=O)NCCCC[C@@H]1NC(=O)[C@H](CC(=O)O)NC(=O)[C@@H]2CCCN2C(=O)[C@H]([C@@H](C)CC)NC(=O)[C@@H]2CSSC[C@@H]3NC(=O)[C@H](C(C)C)NC(=O)[C@H](CC(C)C)NC(=O)[C@H](CC(N)=O)NC(=O)[C@@H]4CCCN4C(=O)[C@H](CCCNC(=N)N)NC(=O)[C@H](CSSC[C@H](NC(=O)[C@@H](N)CC(=O)O)C(=O)N[C@@H](CC(C)C)C(=O)NCC(=O)N[C@@H](CC)C(=O)N[C@@H](CC(C)C)C(=O)N[C@@H](CCCNC(=N)N)C(=O)N[C@@H](CCCCN)C(=O)N2)NC(=O)[C@H](CSSC[C@@H](C(=O)N[C@@H](CCCCN)C(=O)N[C@@H](Cc2ccc(O)cc2)C(=O)N[C@H](C(=O)N[C@@H](Cc2ccccc2)C(N)=O)C(C)C)NC(=O)[C@H](Cc2c[nH]c4ccccc24)NC(=O)[C@H](CCCCN)NC(=O)[C@H](Cc2c[nH]cn2)NC(=O)[C@H]([C@@H](C)O)NC(=O)[C@H](CCCNC(=N)N)NC(=O)[C@H](CO)NC3=O)NC(=O)[C@H](CCCCN)NC(=O)[C@H](CC(=O)O)NC1=O` [compound 799] (H-DCLG[Abu]LRKCIPDK([Pra-Ac])DKCCRPNLVCSRTHKWCKYVF-NH2; disulfide 2-17, 9-23, 16-30), the IC50 amounted to 0.75 µM on hNav1.7, 0.7 µM at hNav1.3 and 28.1 µM at hNav1.5.

Take `C#CCCC(=O)NCCCC[C@@H]1NC(=O)[C@H](CC(=O)O)NC(=O)[C@@H]2CCCN2C(=O)[C@H]([C@@H](C)CC)NC(=O)[C@@H]2CSSC[C@@H]3NC(=O)[C@H](C(C)C)NC(=O)[C@H](CC(C)C)NC(=O)[C@H](CC(N)=O)NC(=O)[C@@H]4CCCN4C(=O)[C@H](CCCNC(=N)N)NC(=O)[C@H](CSSC[C@H](NC(=O)[C@@H](N)CC(=O)O)C(=O)N[C@@H](CC(C)C)C(=O)NCC(=O)N[C@@H](CC)C(=O)N[C@@H](CC(C)C)C(=O)N[C@@H](CCCNC(=N)N)C(=O)N[C@@H](CCCCN)C(=O)N2)NC(=O)[C@H](CSSC[C@@H](C(=O)N[C@@H](CCCCN)C(=O)N[C@@H](Cc2ccc(O)cc2)C(=O)N[C@H](C(=O)N[C@@H](Cc2ccccc2)C(N)=O)C(C)C)NC(=O)[C@H](Cc2c[nH]c4ccccc24)NC(=O)[C@H](CCCNC(=N)N)NC(=O)[C@H](Cc2c[nH]cn2)NC(=O)[C@H]([C@@H](C)O)NC(=O)[C@H](CCCNC(=N)N)NC(=O)[C@H](CO)NC3=O)NC(=O)[C@H](CCCCN)NC(=O)[C@H](CC(=O)O)NC1=O` [compound 801] (H-DCLG[Abu]LRKCIPDK(Pent4ynoyl)DKCCRPNLVCSRTHRWCKYVF-NH2; disulfide 2-17, 9-23, 16-30): the IC50 on hNav1.7 turned out to be 0.55 µM; at hNav1.3, 0.81 µM; on hNav1.5 it was 39.7 µM.

For `C#CC[C@@H]1NC(=O)[C@@H]2CCCN2C(=O)[C@H]([C@@H](C)CC)NC(=O)[C@@H]2CSSC[C@@H]3NC(=O)[C@H](C(C)C)NC(=O)[C@H](CC(C)C)NC(=O)[C@H](CC(N)=O)NC(=O)[C@@H]4CCCN4C(=O)[C@H](CCCNC(=N)N)NC(=O)[C@H](CSSC[C@H](NC(=O)[C@@H](N)CC(=O)O)C(=O)N[C@@H](CC(C)C)C(=O)NCC(=O)N[C@@H](C)C(=O)N[C@@H](CC(C)C)C(=O)N[C@@H](CCCNC(=N)N)C(=O)N[C@@H](CCCCN)C(=O)N2)NC(=O)[C@H](CSSC[C@@H](C(=O)N[C@@H](CCCCN)C(=O)N[C@@H](Cc2ccc(O)cc2)C(=O)N[C@H](C(=O)N[C@@H](Cc2ccccc2)C(N)=O)C(C)C)NC(=O)[C@H](Cc2c[nH]c4ccccc24)NC(=O)[C@H](CCCNC(=N)N)NC(=O)[C@H](Cc2c[nH]cn2)NC(=O)[C@H](CC(C)C)NC(=O)[C@H](CCCNC(=N)N)NC(=O)[C@H](CO)NC3=O)NC(=O)[C@H](CCCCN)NC(=O)[C@H](CC(=O)O)NC(=O)[C@H](CC(N)=O)NC1=O` [compound 802], the values for the IC50 at hNav1.7, at hNav1.3 and on hNav1.5 were 0.26 µM, 0.54 µM and > 50 µM, respectively.

On to `C#CC[C@@H]1NC(=O)[C@@H]2CCCN2C(=O)[C@H]([C@@H](C)CC)NC(=O)[C@@H]2CSSC[C@@H]3NC(=O)[C@H](C(C)C)NC(=O)[C@H](CC(C)C)NC(=O)[C@H](CC(N)=O)NC(=O)[C@@H]4CCCN4C(=O)[C@H](CCCNC(=N)N)NC(=O)[C@H](CSSC[C@H](NC(=O)[C@@H](N)CC(=O)O)C(=O)N[C@@H](CC(C)C)C(=O)NCC(=O)N[C@@H](C)C(=O)N[C@@H](Cc4ccccc4)C(=O)N[C@@H](CCCNC(=N)N)C(=O)N[C@@H](CCCCN)C(=O)N2)NC(=O)[C@H](CSSC[C@@H](C(=O)N[C@@H](CCCCN)C(=O)N[C@@H](Cc2ccc(O)cc2)C(=O)N[C@H](C(=O)N[C@@H](Cc2ccccc2)C(N)=O)C(C)C)NC(=O)[C@H](Cc2c[nH]c4ccccc24)NC(=O)[C@H](CCCNC(=N)N)NC(=O)[C@H](Cc2c[nH]cn2)NC(=O)[C@H](CC(C)C)NC(=O)[C@H](CCCNC(=N)N)NC(=O)[C@H](CO)NC3=O)NC(=O)[C@H](CCCCN)NC(=O)[C@H](CC(=O)O)NC(=O)[C@H](CC(N)=O)NC1=O` [compound 803], for which the IC50 worked out at 0.13 µM at hNav1.7, 0.12 µM at hNav1.3 and 36.5 µM on hNav1.5.

With `C#CCCC(=O)NCCCC[C@@H]1NC(=O)[C@H](CC(=O)O)NC(=O)[C@@H]2CCCN2C(=O)[C@H]([C@@H](C)CC)NC(=O)[C@@H]2CSSC[C@@H]3NC(=O)[C@H](C(C)C)NC(=O)[C@H](CC(C)C)NC(=O)[C@H](CC(N)=O)NC(=O)[C@@H]4CCCN4C(=O)[C@H](CCCNC(=N)N)NC(=O)[C@H](CSSC[C@H](NC(=O)[C@@H](N)CC(=O)O)C(=O)N[C@@H](CC(C)C)C(=O)NCC(=O)N[C@@H](CC)C(=O)N[C@@H](Cc4ccccc4)C(=O)N[C@@H](CCCNC(=N)N)C(=O)N[C@@H](CCCCN)C(=O)N2)NC(=O)[C@H](CSSC[C@@H](C(=O)N[C@@H](CCCCN)C(=O)N[C@@H](Cc2ccc(O)cc2)C(=O)N[C@H](C(=O)N[C@@H](Cc2ccccc2)C(N)=O)C(C)C)NC(=O)[C@H](Cc2c[nH]c4ccccc24)NC(=O)[C@H](CCCCN)NC(=O)[C@H](Cc2c[nH]cn2)NC(=O)[C@H]([C@@H](C)O)NC(=O)[C@H](CCCNC(=N)N)NC(=O)[C@H](CO)NC3=O)NC(=O)[C@H](CCCCN)NC(=O)[C@H](CC(=O)O)NC1=O` [compound 804] (H-DCLG[Abu]FRKCIPDK(Pent4ynoyl)DKCCRPNLVCSRTHKWCKYVF-NH2; disulfide 2-17, 9-23, 16-30), the values for the IC50 at hNav1.7, on hNav1.3 and on hNav1.5 were 0.5 µM, 0.35 µM and > 50 µM, respectively.

The record behind these values is patent US9340590B2 (priority 2011, dated 2016).
